# Tests used:
# [1] = system: 769P; assay: MTT growth inhibition, 769P; assay type: cell-based, human; conditions: Homo sapiens, 769P cells, 72 hrs
# Experimental: (§1) The growth inhibitory effects of avicin D and oxetane derivative were measured using the MTT [3-(4,5-dimethylthiazol-2-yl)-2,5-diphenyl tetrazolium bromide] reduction assay as described in Haridas et al. (2001). Cells were cultured with varying concentrations of avicin D or oxetane in 96-well plates for 72 hrs at 37° C. At the end of 72 hrs, cells were stained with MTT for 2 hrs and then incubated with lysis buffer (20% SDS in 50% N,N-dimethylformamide) for another 6 hrs. Optical density at 570 nm was used as a measure of cell viability.
# (§2) The cell lines 769P, A498, CAKI-1, and CAKI-2 are derived from primary human renal-cell cancers (RCC). A549 is a human lung adenocarcinoma epithelial cell line. B16F10 is a mouse melanoma cell line. BT474, BT 474 M1, BT549, MCF7, […], and ZR751 are breast cancer cell lines. CCRF-CEM, Jurkat, and MOLT4 are leukemia cell lines. HELA is cell line derived from cervical caner. HepG2 is a human hepatocellular liver carcinoma cell line. JeKo-1 is a mantle cell lymphoma (MCL) cell line. LnCAP is a cell line was established from a metastatic lesion of human prostatic adenocarcinoma. MM.1 and RPMI-8226 are human multiple myeloma cell lines. OVCAR3 and SKOV3 are ovarian cancer cell lines. Panc-1 is a pancreatic cancer cell line. PC3 is a prostate cancer cell line. Raji is a Burkitt's lymphoma cell line. RL is a non-Hodgkin's lymphoma cell line. […]
# [2] = system: B16F10; assay: MTT growth inhibition, B16F10; assay type: cell-based, mouse; conditions: Mus musculus, B16-F10, B16F10 cells, 72 hrs
# Experimental: as §1, §2
# [3] = system: Jurkat (human T-cell leukemia) cells; assay: Reduction in cell viability, Jurkat cells (Table 6); assay type: cell-based; conditions: Homo sapiens, 50% reduction in cell viability
# Excerpt: The IC50 values indicate the concentrations of avicin D/compound 8 required to induce a 50% reduction in call viability. These studies were done in Jurkat (human T-cell leukemia) cells and have been described previously in Haridas et al., 2001, which is incorporated herein by reference.
# [4] = system: CAKI-1; assay: MTT growth inhibition, CAKI-1; assay type: cell-based, human; conditions: Homo sapiens, CAKI-1 cells, 72 hrs
# Experimental: as §1, §2
# [5] = system: BT474; assay: MTT growth inhibition, BT474; assay type: cell-based; conditions: Homo sapiens, BT-474, BT474 cells, 72 hrs
# Experimental: as §1, §2
# [6] = system: U266; assay: MTT growth inhibition, U266; assay type: cell-based; conditions: Homo sapiens, U-266, U266 cells, 72 hrs
# Experimental: as §1, §2
# [7] = system: PC3; assay: MTT growth inhibition, PC3; assay type: cell-based; conditions: Homo sapiens, PC-3, PC3 cells, 72 hrs
# Experimental: as §1, §2
# [8] = system: JEKO-1; assay: MTT growth inhibition, JEKO-1; assay type: cell-based; conditions: Homo sapiens, JEKO-1 cells, 72 hrs
# Experimental: as §1, §2
# [9] = system: GM0131; assay: MTT growth inhibition, GM0131; assay type: cell-based; conditions: GM0131 wild type human fibroblast cells, 72 hrs
# Experimental: as §1, §2
# [10] = system: Panc-1; assay: MTT growth inhibition, Panc-1; assay type: cell-based; conditions: Homo sapiens, Panc-1 cells, 72 hrs
# Experimental: as §1, §2
# [11] = system: MCF7; assay: MTT growth inhibition, MCF7; assay type: cell-based; conditions: Homo sapiens, MCF7 cells, 72 hrs
# Experimental: as §1, §2
# [12] = system: HepG2; assay: MTT growth inhibition, HepG2; assay type: cell-based, human; conditions: Homo sapiens, HepG2 cells, 72 hrs
# Experimental: as §1, §2
# [13] = system: MM1; assay: MTT growth inhibition, MM1; assay type: cell-based, human; conditions: Homo sapiens, MM1 cells, 72 hrs
# Experimental: as §1, §2
# [14] = system: OVCAR3; assay: MTT growth inhibition, OVCAR3; assay type: cell-based; conditions: Homo sapiens, OVCAR-3, OVCAR3 cells, 72 hrs
# Experimental: as §1, §2
# [15] = system: Nrf2; assay: Nrf2 activation, ARE-driven luciferase in Hep G2 cells; assay type: cell-based, human; conditions: Hep G2 cells transfected with hARE-luc, luciferase activity
# Experimental: Activation of Nrf2 was assessed by measuring the antioxidant response element (ARE)-mediated gene expression as described previously by Haridas et al., 2004, which is incorporated herein by reference. Briefly, ARE is a cis-acting regulatory sequence identified in the promoter region of several genes encoding phase 2 detoxification enzymes, that binds to Nrf2. Hep G2 (human hepatocarcinoma) cells were transfected with a human ARE-driven luciferase (luc) containing plasmid, hARE-luc. Following exposure to avicin D/compound 8, the luciferase activity induced in these cells was measured using a dual-luciferase assay kit (Promega) according to the manufacturer's protocol.
# [16] = system: LnCAP; assay: MTT growth inhibition, LnCAP; assay type: cell-based, human; conditions: Homo sapiens, LnCAP cells, 72 hrs
# Experimental: as §1, §2
# [17] = system: CAKI-2; assay: MTT growth inhibition, CAKI-2; assay type: cell-based, human; conditions: Homo sapiens, CAKI-2 cells, 72 hrs
# Experimental: as §1, §2
# [18] = system: U2OS; assay: MTT growth inhibition, U2OS; assay type: cell-based, human; conditions: Homo sapiens, U2OS cells, 72 hrs
# Experimental: as §1, §2
# [19] = system: RPMI 8226; assay: MTT growth inhibition, RPMI 8226; assay type: cell-based, human; conditions: Homo sapiens, RPMI 8226 cells, 72 hrs
# Experimental: as §1, §2
# [20] = system: WSU-DLCL2; assay: MTT growth inhibition, WSU-DLCL2; assay type: cell-based, human; conditions: Homo sapiens, WSUDLCL2, WSU-DLCL2 cells, 72 hrs
# Experimental: as §1, §2
# [21] = system: SKOV3; assay: MTT growth inhibition, SKOV3; assay type: cell-based; conditions: Homo sapiens, SK-OV-3, SKOV3 cells, 72 hrs
# Experimental: as §1, §2
# [22] = system: HS27; assay: MTT growth inhibition, HS27; assay type: cell-based; conditions: HS27 human foreskin fibroblast cells, 72 hrs
# Experimental: as §1, §2
# [23] = system: BT549; assay: MTT growth inhibition, BT549; assay type: cell-based; conditions: Homo sapiens, BT-549, BT549 cells, 72 hrs
# Experimental: as §1, §2
# [24] = system: A498; assay: MTT growth inhibition, A498; assay type: cell-based, human; conditions: Homo sapiens, A498 cells, 72 hrs
# Experimental: as §1, §2
# [25] = system: MINO; assay: MTT growth inhibition, MINO; assay type: cell-based; conditions: Homo sapiens, MINO cells, 72 hrs
# Experimental: as §1, §2
# [26] = system: Hela; assay: MTT growth inhibition, Hela; assay type: cell-based; conditions: Homo sapiens, Hela cells, 72 hrs
# Experimental: as §1, §2
# [27] = system: Jurkat; assay: MTT growth inhibition, Jurkat; assay type: cell-based, human; conditions: Homo sapiens, Jurkat cells, 72 hrs (Table 5)
# Experimental: as §1, §2
# [28] = system: RL; assay: MTT growth inhibition, RL; assay type: cell-based; conditions: Homo sapiens, RL cells, 72 hrs
# Experimental: as §1, §2
# [29] = system: Raji; assay: MTT growth inhibition, Raji; assay type: cell-based; conditions: Homo sapiens, Raji cells, 72 hrs
# Experimental: as §1, §2
# [30] = system: CCRF-CEM; assay: MTT growth inhibition, CCRF-CEM; assay type: cell-based; conditions: Homo sapiens, CCRF-CEM cells, 72 hrs
# Experimental: as §1, §2
# [31] = system: BT474 M1; assay: MTT growth inhibition, BT474 M1; assay type: cell-based; conditions: Homo sapiens, BT474M1, BT474 M1 cells, 72 hrs
# Experimental: as §1, §2
# [32] = system: HEK293; assay: MTT growth inhibition, HEK293; assay type: cell-based, human; conditions: Homo sapiens, HEK293 cells, 72 hrs
# Experimental: as §1, §2
# [33] = system: ZR751; assay: MTT growth inhibition, ZR751; assay type: cell-based; conditions: Homo sapiens, ZR-75-1, ZR751 cells, 72 hrs
# Experimental: as §1, §2
# [34] = system: MOLT4; assay: MTT growth inhibition, MOLT4; assay type: cell-based; conditions: Homo sapiens, MOLT-4, MOLT4 cells, 72 hrs
# Experimental: as §1, §2
# [35] = system: 3T3 L1; assay: MTT growth inhibition, 3T3 L1; assay type: cell-based; conditions: Mus musculus, 3T3 L1 fibroblast cells, 72 hrs
# Experimental: as §1, §2
# [36] = system: A549; assay: MTT growth inhibition, A549; assay type: cell-based, human; conditions: Homo sapiens, A549 cells, 72 hrs
# Experimental: as §1, §2
structure (smiles),measurement,setting,value
C=CC(C)(O)CCC1OCC1C(=O)O[C@@H]1C(C)O[C@@H](O[C@](C)(C=C)CC/C=C(\CO)C(=O)O[C@H]2C[C@@]3(C(=O)O[C@@H]4OC(CO)[C@@H](O)C(O)C4O[C@@H]4OC(C)[C@H](O[C@@H]5O[C@@H](CO)[C@H](O)[C@@H]5O)C(O[C@@H]5OC(CO)[C@@H](O)C(O)C5O)C4O)C(CC2(C)C)C2=CCC4[C@@]5(C)CC[C@H](O[C@@H]6OC(CO[C@@H]7OC(C)[C@H](O)C(O)C7O[C@@H]7OC[C@@H](O)C(O)C7O)[C@@H](O)C(O)C6NC(C)=O)C(C)(C)C5CC[C@@]4(C)[C@]2(C)C[C@H]3O)C(O)C1O (stereo partly drawn) [Compound 8],IC50,[1],150 nM
same,IC50,[2],140 nM
same,IC50,[3],40 nM
same,IC50,[4],280 nM
same,IC50,[5],900 nM
same,IC50,[6],80 nM
same,IC50,[7],190 nM
same,IC50,[8],160 nM
same,IC50,[9],12000 nM
same,IC50,[10],310 nM
same,IC50,[11],2600 nM
same,IC50,[12],310 nM
same,IC50,[13],30 nM
same,IC50,[14],210 nM
same,Fold Nrf2 activation,[15],0.98
same,IC50,[16],190 nM
same,IC50,[17],490 nM
same,IC50,[18],1200 nM
same,IC50,[19],160 nM
same,IC50,[20],140 nM
same,IC50,[21],420 nM
same,IC50,[22],2500 nM
same,IC50,[23],1400 nM
same,IC50,[24],220 nM
same,IC50,[25],60 nM
same,IC50,[26],1870 nM
same,IC50,[27],90 nM
same,IC50,[28],80 nM
same,IC50,[29],620 nM
same,IC50,[30],630 nM
same,IC50,[31],700 nM
same,IC50,[32],6800 nM
same,IC50,[33],340 nM
same,IC50,[34],200 nM
same,IC50,[35],800 nM
same,IC50,[36],1200 nM

# — US9175030B2, “Derivatives of avicin D and methods of making and using thereof” (priority 2012, dated 2015)
